# Calls of active or inactive are those of the source. No cut-off for these calls is given here.
# Columns and labels:
# Oryctolagus cuniculus [1] = test: Antihyperlipidemic activity in high fat-high cholesterol fed New Zealand Oryctolagus cuniculus (rabbit) assessed as triglyceride level in blood at 15 mg/kg, po for 40 days (reference value: 2.11 +/- 0.43 mmol/l); assay type: functional
# Oryctolagus cuniculus [2] = test: Toxicity in hyperlipidemic New Zealand Oryctolagus cuniculus (rabbit) assessed as effect on pancreas coefficient at 5 to 15 mg/kg/day, po for 2 months; assay type: organism-based; design: route oral; conditions: in vivo
# Oryctolagus cuniculus [3] = test: Antihyperlipidemic activity in high fat-high cholesterol fed New Zealand Oryctolagus cuniculus (rabbit) assessed as high-density lipoprotein-cholesterol level in blood at 5 mg/kg, po for 40 days (reference value: 0.69 +/- 0.02 mmol/l); assay type: functional
# Oryctolagus cuniculus [4] = test: Toxicity in hyperlipidemic New Zealand Oryctolagus cuniculus (rabbit) assessed as blood urea nitrogen level at 5 mg/kg/day, po for 2 months (reference value: 7.25 +/- 1.46 mmol/l); assay type: organism-based; design: route oral; conditions: in vivo
# Oryctolagus cuniculus [5] = test: Antihyperlipidemic activity in high fat-high cholesterol fed New Zealand Oryctolagus cuniculus (rabbit) assessed as low-density lipoprotein-cholesterol level in blood at 5 mg/kg, po for 40 days (reference value: 3.47 +/- 0.44 mmol/l); assay type: functional
# Oryctolagus cuniculus [6] = test: Antihyperlipidemic activity in high fat-high cholesterol fed New Zealand Oryctolagus cuniculus (rabbit) assessed as low-density lipoprotein-cholesterol level in blood at 10 mg/kg, po for 40 days (reference value: 3.47 +/- 0.44 mmol/l); assay type: functional
# Oryctolagus cuniculus [7] = test: Antihyperlipidemic activity in high fat-high cholesterol fed New Zealand Oryctolagus cuniculus (rabbit) assessed as triglyceride level in blood at 10 mg/kg, po for 40 days (reference value: 2.07 +/- 0.33 mmol/l); assay type: functional
# Oryctolagus cuniculus [8] = test: Antihyperlipidemic activity in high fat-high cholesterol fed New Zealand Oryctolagus cuniculus (rabbit) assessed as low-density lipoprotein-cholesterol level in blood at 15 mg/kg, po for 40 days (reference value: 3.45 +/- 0.56 mmol/l); assay type: functional
# Oryctolagus cuniculus [9] = test: Toxicity in hyperlipidemic New Zealand Oryctolagus cuniculus (rabbit) assessed as blood urea nitrogen level at 15 mg/kg/day, po for 2 months (reference value: 7.25 +/- 1.46 mmol/l); assay type: organism-based; design: route oral; conditions: in vivo
# Oryctolagus cuniculus [10] = test: Reduction in number of lipid droplets in liver cells of high fat-high cholesterol fed New Zealand Oryctolagus cuniculus (rabbit) at 10 to 15 mg/kg, po for 2 months by hematoxylin-eosin staining analysis; assay type: functional, organism-based
# Oryctolagus cuniculus [11] = test: Toxicity in hyperlipidemic New Zealand Oryctolagus cuniculus (rabbit) assessed as histopathological examination of liver at 5 to 15 mg/kg/day, po for 2 months by hematoxylin-eosin staining analysis; assay type: organism-based; design: route oral; conditions: in vivo
# Oryctolagus cuniculus [12] = test: Toxicity in hyperlipidemic New Zealand Oryctolagus cuniculus (rabbit) assessed as blood urea nitrogen level at 10 mg/kg/day, po for 2 months (reference value: 7.25 +/- 1.46 mmol/l); assay type: organism-based; design: route oral; conditions: in vivo
# Oryctolagus cuniculus [13] = test: Antihyperlipidemic activity in high fat-high cholesterol fed New Zealand Oryctolagus cuniculus (rabbit) assessed as high-density lipoprotein-cholesterol level in blood at 15 mg/kg, po for 40 days (reference value: 0.67 +/- 0.22 mmol/l); assay type: functional
# Oryctolagus cuniculus [14] = test: Toxicity in hyperlipidemic New Zealand Oryctolagus cuniculus (rabbit) assessed as effect on liver coefficient at 5 to 15 mg/kg/day, po for 2 months; assay type: organism-based; design: route oral; conditions: in vivo
# Oryctolagus cuniculus [15] = test: Toxicity in high fat-high cholesterol fed New Zealand Oryctolagus cuniculus (rabbit) assessed as body weight at 15 mg/kg, po for 40 days; assay type: organism-based; design: dose 15 mg/kg, route oral; conditions: in vivo, 960 h
# Oryctolagus cuniculus [16] = test: Antihyperlipidemic activity in high fat-high cholesterol fed New Zealand Oryctolagus cuniculus (rabbit) assessed as total cholesterol level in blood at 15 mg/kg, po for 40 days (reference value: 8.74 +/- 0.53 mmol/l); assay type: functional
# Oryctolagus cuniculus [17] = test: Antihyperlipidemic activity in high fat-high cholesterol fed New Zealand Oryctolagus cuniculus (rabbit) assessed as triglyceride level in blood at 15 mg/kg, po for 40 days (reference value: 2.07 +/- 0.33 mmol/l); assay type: functional
smiles,measurement,setting,value
CCCCCCCCCCCCCCCCc1c2c(OC)c(OC)ccc2cc2[n+]1CCc1cc3c(cc1-2)OCO3.[Cl-] [8-HEXADECYL-BERBERINE CHLORIDE],Activity,Oryctolagus cuniculus [1],1.58e+06 nmol/L
same,Activity,Oryctolagus cuniculus [2],Non-toxic
same,Activity,Oryctolagus cuniculus [3],700000 nmol/L
same,Activity,Oryctolagus cuniculus [4],5.45 mmol/L
same,Activity,Oryctolagus cuniculus [5],2.67e+06 nmol/L
same,Activity,Oryctolagus cuniculus [6],2.46e+06 nmol/L
same,Activity,Oryctolagus cuniculus [7],1.89e+06 nmol/L
same,Activity,Oryctolagus cuniculus [8],2.02e+06 nmol/L
same,Activity,Oryctolagus cuniculus [9],4.36 mmol/L
same,inhibition,Oryctolagus cuniculus [10],Active
same,Activity,Oryctolagus cuniculus [11],Non-toxic
same,Activity,Oryctolagus cuniculus [12],4.73 mmol/L
same,Activity,Oryctolagus cuniculus [13],750000 nmol/L
same,Activity,Oryctolagus cuniculus [14],Non-toxic
same,Activity,Oryctolagus cuniculus [15],Non-toxic
same,Activity,Oryctolagus cuniculus [16],2.28e+06 nmol/L
same,Activity,Oryctolagus cuniculus [17],1.25e+06 nmol/L

# — ChEMBL document CHEMBL3046105, “Synthesis and antihyperlipidemic efficiency of berberine-based HMG-CoA reductase inhibitor” (Med Chem Res, 2012)
